Results on one compound are retold here after paper PMC10980208, “A novel micellular fluorogenic substrate for quantitating the activity of 1-phosphatidylinositol 4,5-bisphosphate phosphodiesterase gamma (PLCγ) enzymes” (PLOS ONE, 2024).

This assay addresses T1, PLCγ2-P522R (Homo sapiens, UniProt P16885, P522R).
T1 construct: gene PLCG2
T1 sequence (P16885 1-1195 P522R): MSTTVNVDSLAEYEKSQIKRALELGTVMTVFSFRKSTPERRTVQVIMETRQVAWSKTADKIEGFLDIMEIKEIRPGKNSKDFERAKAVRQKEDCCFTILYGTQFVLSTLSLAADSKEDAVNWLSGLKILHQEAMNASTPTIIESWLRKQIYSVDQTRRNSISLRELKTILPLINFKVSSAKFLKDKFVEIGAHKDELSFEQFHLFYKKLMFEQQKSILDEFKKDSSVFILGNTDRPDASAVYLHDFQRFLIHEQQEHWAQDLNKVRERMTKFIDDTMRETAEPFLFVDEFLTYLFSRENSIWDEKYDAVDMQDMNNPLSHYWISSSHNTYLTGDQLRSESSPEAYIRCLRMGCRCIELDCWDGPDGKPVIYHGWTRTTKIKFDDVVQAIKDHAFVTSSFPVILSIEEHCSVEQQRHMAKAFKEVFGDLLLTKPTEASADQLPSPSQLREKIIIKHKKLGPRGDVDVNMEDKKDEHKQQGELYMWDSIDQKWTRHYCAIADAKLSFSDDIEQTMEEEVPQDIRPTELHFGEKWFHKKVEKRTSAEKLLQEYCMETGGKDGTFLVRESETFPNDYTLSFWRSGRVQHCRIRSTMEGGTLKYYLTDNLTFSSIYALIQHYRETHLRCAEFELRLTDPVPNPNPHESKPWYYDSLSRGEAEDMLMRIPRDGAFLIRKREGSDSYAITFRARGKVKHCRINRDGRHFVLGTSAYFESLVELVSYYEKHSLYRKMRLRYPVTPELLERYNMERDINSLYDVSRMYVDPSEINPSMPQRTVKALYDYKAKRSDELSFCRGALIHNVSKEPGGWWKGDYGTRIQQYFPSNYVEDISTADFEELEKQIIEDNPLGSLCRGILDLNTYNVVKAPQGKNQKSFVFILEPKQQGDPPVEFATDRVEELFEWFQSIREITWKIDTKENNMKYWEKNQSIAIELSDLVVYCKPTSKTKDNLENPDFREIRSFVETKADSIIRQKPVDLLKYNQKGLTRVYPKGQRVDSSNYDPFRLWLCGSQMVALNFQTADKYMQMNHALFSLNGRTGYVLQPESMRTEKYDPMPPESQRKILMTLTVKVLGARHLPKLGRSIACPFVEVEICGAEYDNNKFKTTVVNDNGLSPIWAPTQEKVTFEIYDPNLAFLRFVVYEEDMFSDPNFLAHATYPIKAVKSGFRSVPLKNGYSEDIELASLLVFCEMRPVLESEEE
As to the kind of experiment: fluorogenic micelle enzyme assay. It is filed as biochemical.

Regarding `CCCCCCCCCCCCCCCCOc1cc(COC(=O)Nc2ccc3c(C(F)(F)F)cc(=O)oc3c2)ccc1OP(=O)(O)O[C@@H]1[C@H](O)[C@H](O)[C@@H](OP(=O)(O)O)[C@H](OP(=O)(O)O)[C@H]1O` [C16CF3-coumarin], the “fluorogenic micelle enzyme assay” value is “both PLCγ1-D1665H and PLCγ2-P522R were able to process the C16CF3-coumarin substrate faster than the corresponding wild-type enzymes”.
